Assay results from patent publication US20100068786A1, “METHODS AND COMPOSITIONS FOR REVERSING P-GLYCOPROTEIN MEDICATED DRUG RESISTANCE” (priority 2008, published 2010).

Columns and labels:
P-gp [1] = target: T1, P-gp (Mus musculus, UniProt P21447); details: co-administration in mice of P-gp inhibitor LY335979 and nelfinavir; cited from earlier work
T1 construct: A comparison of P-gp knock-out mice to their wild-type counterparts; host or cells: mouse, in vivo (blood-brain barrier)

P-gp [2] = target: T1, P-gp; details: P-gp knock-out mice vs wild-type; cited from earlier work
MCF-7/DX1 cells = test: MTT cell viability assay, reversal of taxol resistance; type: cell-based, human; details: P-gp over-expressing MCF-7/DX1 cell line, FIG. 8
Protocol: The inhibition of P-gp transport was evaluated with the prodrug dimers and monomer controls in the human carcinoma MCF7-DX1 cell line.
The P-gp-mediated multidrug resistance phenotype of cancer cells is characterized by the ability of cells to evade the cytotoxic effects of drugs that are substrates of P-gp and remain viable even at high extracellular drugs concentrations. One such compound is the cytostatic agent taxol, which is also a known P-gp substrate (Horwitz et al., 1993). Cells lines that over-express P-gp, such as the MCF-7/DX1 cell line, display a 3000-fold decrease in susceptibility to taxol (FIG. 8).

[3] = system: implanted human glioblastomas; details: cited from earlier work
MCF-7/DX1 = MCF-7/DX1 vs MCF-7 cells; cited from earlier work

T1 sequence (P21447 whole entry): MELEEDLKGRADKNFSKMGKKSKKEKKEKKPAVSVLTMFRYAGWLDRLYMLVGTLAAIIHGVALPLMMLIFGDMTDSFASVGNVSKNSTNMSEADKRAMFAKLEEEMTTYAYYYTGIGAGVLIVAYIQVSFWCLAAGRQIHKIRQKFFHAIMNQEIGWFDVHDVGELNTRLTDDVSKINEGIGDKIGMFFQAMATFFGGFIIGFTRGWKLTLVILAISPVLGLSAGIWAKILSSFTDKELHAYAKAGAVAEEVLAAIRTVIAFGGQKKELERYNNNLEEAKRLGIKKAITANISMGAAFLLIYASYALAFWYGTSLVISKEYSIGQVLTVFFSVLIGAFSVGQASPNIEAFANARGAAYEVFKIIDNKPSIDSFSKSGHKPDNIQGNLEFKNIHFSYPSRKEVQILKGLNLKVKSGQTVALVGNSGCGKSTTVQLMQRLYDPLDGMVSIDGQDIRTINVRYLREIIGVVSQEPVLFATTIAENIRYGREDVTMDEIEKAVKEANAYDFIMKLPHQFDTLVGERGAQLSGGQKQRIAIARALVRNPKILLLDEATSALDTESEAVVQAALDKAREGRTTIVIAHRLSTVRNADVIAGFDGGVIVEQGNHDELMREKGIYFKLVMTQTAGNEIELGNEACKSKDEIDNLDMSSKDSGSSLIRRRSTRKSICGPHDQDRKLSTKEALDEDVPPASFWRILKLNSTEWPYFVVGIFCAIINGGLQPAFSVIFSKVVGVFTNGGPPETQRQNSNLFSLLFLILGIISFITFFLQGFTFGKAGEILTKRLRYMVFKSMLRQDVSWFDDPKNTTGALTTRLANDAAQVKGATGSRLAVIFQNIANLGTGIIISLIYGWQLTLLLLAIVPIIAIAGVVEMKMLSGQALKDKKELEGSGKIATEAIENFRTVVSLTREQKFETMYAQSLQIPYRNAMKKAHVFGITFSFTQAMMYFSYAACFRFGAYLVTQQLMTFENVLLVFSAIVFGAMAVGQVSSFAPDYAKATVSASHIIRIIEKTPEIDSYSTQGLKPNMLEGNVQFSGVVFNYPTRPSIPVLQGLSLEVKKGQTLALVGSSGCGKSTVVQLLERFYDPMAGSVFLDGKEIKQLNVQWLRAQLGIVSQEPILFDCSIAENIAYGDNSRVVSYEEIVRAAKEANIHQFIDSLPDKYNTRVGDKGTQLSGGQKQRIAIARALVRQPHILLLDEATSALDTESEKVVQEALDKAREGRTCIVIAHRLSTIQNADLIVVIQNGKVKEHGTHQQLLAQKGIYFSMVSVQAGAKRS

With `Cc1c(O)cccc1C(=O)N[C@@H](CSc1ccccc1)[C@H](O)CN1C[C@H]2CCCC[C@H]2C[C@H]1C(=O)NC(C)(C)C` [nelfinavir] as the compound, how does the “increase in the level of the therapeutic agent in the brain” value (P-gp [1]) read?
Its value is 25 fold.

And the “increase in brain penetration” value (P-gp [2])?
Its value is 40 fold.

Which “increase in brain penetration” value (P-gp [2]) does the source give for `CC(C)(C)NC(=O)[C@@H]1C[C@@H]2CCCC[C@@H]2CN1C[C@@H](O)[C@H](Cc1ccccc1)NC(=O)[C@H](CC(N)=O)NC(=O)c1ccc2ccccc2n1` [saquinavir] here?
The value was 10 fold.

Which “decrease in susceptibility to taxol” value (MCF-7/DX1 cells) does the source give for `CC(=O)O[C@H]1C(=O)[C@@]2(C)[C@H]([C@H](OC(=O)c3ccccc3)[C@]3(O)C[C@H](OC(=O)[C@H](O)[C@@H](NC(=O)c4ccccc4)c4ccccc4)C(C)=C1C3(C)C)[C@]1(OC(C)=O)CO[C@@H]1C[C@@H]2O` [taxol, paclitaxel] here?
The value was 3000 fold.

And the “reduction of growth of implanted human glioblastomas” value ([3]; co-administration of paclitaxel with valspodar (PSC833) in mice)?
The value was 90%.

What about the “effect on tumor size” value ([3]; treatment with either drug alone, mice) of the same compound?
The value was “no effect”.

Which resistance to doxorubicin (MCF-7/DX1) does the source give for `COc1cccc2c1C(=O)c1c(O)c3c(c(O)c1C2=O)C[C@@](O)(C(=O)CO)C[C@@H]3O[C@H]1C[C@H](N)[C@H](O)[C@H](C)O1` [doxorubicin] here?
The resistance to doxorubicin was 200 fold.
